# Measured values as given in ChEMBL document CHEMBL5321252, “A FOXC2 inhibitor, MC-1-F2, as a therapeutic candidate for targeting EMT in castration-resistant prostate cancer” (Bioorg Med Chem Lett, 2023).
# pEC50: −log10 of the molar value. Active and inactive are the calls of the source. The calls are words filed in the database; no cut-off is given here.
# Tests used:
# DU-145 [1] = assay: Inhibition of epithelial mesenchymal transition in human DU-145 cells assessed as downregulation of Slug protein expression at 20 uM incubated for 48 hrs by Western blot analysis; assay type: functional, cell-based
# LNCaP [2] = assay: Synergistic antiproliferative activity against human LNCaP cells assessed as inhibition of cell growth in presence of docetaxel by MTT assay; assay type: functional, cell-based
# DU-145 [3] = assay: Inhibition of epithelial mesenchymal transition in human DU-145 cells assessed as upregulation of E-cadherin protein expression at 20 uM incubated for 48 hrs by Western blot analysis; assay type: functional, cell-based
# DU-145 [4] = assay: Synergistic antiproliferative activity against human DU-145 cells assessed as combination index incubated for 24 hrs in the presence of enzalutamide by MTT assay; assay type: functional
# DU-145 [5] = assay: Synergistic antiproliferative activity against human DU-145 cells assessed as reduction in cell viability incubated for 24 hrs in the presence of docetaxel by MTT assay; assay type: functional, cell-based
# PC-3 [6] = assay: Inhibition of epithelial mesenchymal transition in human PC-3 cells assessed as upregulation of E-cadherin protein expression at 20 uM incubated for 48 hrs by Western blot analysis; assay type: functional, cell-based
# PC-3 [7] = assay: Antiproliferative activity against human PC-3 cells assessed as reduction in cell viability by MTT assay; assay type: functional, cell-based
# LNCaP [8] = assay: Antimetastatic activity in human LNCaP cells assessed as inhibition of cell invasion by measuring change in number of invading cells by transwell invasion assay; assay type: functional, cell-based
# PC-3 [9] = assay: Synergistic antiproliferative activity against human PC-3 cells assessed as reduction in cell viability incubated for 24 hrs in the presence of docetaxel by MTT assay; assay type: functional, cell-based
# PC-3 [10] = assay: Inhibition of cancer stem cell activity in human PC-3 cells assessed as decrease in Nanog protein expression at 20 uM incubated for 48 hrs by Western blot analysis; assay type: functional, cell-based
# PC-3 [11] = assay: Synergistic antiproliferative activity against human PC-3 cells assessed as combination index incubated for 24 hrs in the presence of enzalutamide by MTT assay; assay type: functional
# DU-145 [12] = assay: Antimetastatic activity in human DU-145 cells assessed as inhibition of cell invasion at 20 uM incubated for 24 hrs by transwell invasion assay; assay type: functional, cell-based
# PC-3 [13] = assay: Antimetastatic activity in human PC-3 cells assessed as inhibition of cell invasion at 20 uM incubated for 24 hrs by transwell invasion assay; assay type: functional, cell-based
# DU-145 [14] = assay: Inhibition of epithelial mesenchymal transition in human DU-145 cells assessed as downregulation of Vimentin protein expression at 20 uM incubated for 48 hrs by Western blot analysis; assay type: functional, cell-based
# PC-3 [15] = assay: Inhibition of epithelial mesenchymal transition in human PC-3 cells assessed as downregulation of ZEBI protein expression at 20 uM incubated for 48 hrs by Western blot analysis; assay type: functional, cell-based
# [16] = target: T1, Forkhead box protein C2 (Homo sapiens) (UniProt Q99958); assay: Induction of FOXC2 degradation in human DU-145 cells assessed as decrease in FOXC2 protein level at 20 uM incubated for 48 hrs by Western blot analysis; assay type: cell-based
# T1 sequence (whole entry): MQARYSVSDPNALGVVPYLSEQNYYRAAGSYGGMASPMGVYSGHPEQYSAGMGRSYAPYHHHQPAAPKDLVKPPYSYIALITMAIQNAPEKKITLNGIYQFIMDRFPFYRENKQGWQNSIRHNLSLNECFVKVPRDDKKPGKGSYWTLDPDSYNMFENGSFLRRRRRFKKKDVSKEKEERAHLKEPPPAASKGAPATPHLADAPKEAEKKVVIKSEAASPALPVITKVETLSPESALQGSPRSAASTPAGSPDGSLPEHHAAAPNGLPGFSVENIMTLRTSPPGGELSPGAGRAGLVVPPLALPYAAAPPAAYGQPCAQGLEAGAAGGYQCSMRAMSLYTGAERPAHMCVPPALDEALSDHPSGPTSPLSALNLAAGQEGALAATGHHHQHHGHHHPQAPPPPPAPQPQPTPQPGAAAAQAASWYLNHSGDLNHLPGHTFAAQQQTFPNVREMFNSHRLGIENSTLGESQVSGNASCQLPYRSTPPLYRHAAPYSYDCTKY
# PC-3 [17] = assay: Inhibition of epithelial mesenchymal transition in human PC-3 cells assessed as upregulation of ZO-1 protein expression at 20 uM incubated for 48 hrs by Western blot analysis; assay type: functional, cell-based
# PC-3 [18] = assay: Inhibition of epithelial mesenchymal transition in human PC-3 cells assessed as downregulation of Slug protein expression at 20 uM incubated for 48 hrs by Western blot analysis; assay type: functional, cell-based
# PC-3 [19] = assay: Inhibition of cancer stem cell activity in human PC-3 cells assessed as decrease in C-myc protein expression at 20 uM incubated for 48 hrs by Western blot analysis; assay type: functional, cell-based
# PC-3 [20] = assay: Effect on FOXC2 gene expression level in human PC-3 cells; assay type: functional, cell-based
# DU-145 [21] = assay: Effect on FOXC2 gene expression level in human DU-145 cells; assay type: functional, cell-based
# PC-3 [22] = assay: Inhibition of cancer stem cell activity in human PC-3 cells assessed as decrease in KLF4 protein expression at 20 uM incubated for 48 hrs by Western blot analysis; assay type: functional, cell-based
# DU-145 [23] = assay: Inhibition of cancer stem cell activity in human DU-145 cells assessed as decrease in Nanog protein expression at 20 uM incubated for 48 hrs by Western blot analysis; assay type: functional, cell-based
# PC-3 [24] = assay: Inhibition of epithelial mesenchymal transition in human PC-3 cells assessed as downregulation of N-cadherin protein expression at 20 uM incubated for 48 hrs by Western blot analysis; assay type: functional, cell-based
# DU-145 [25] = assay: Inhibition of epithelial mesenchymal transition in human DU-145 cells assessed as upregulation of ZO-1 protein expression at 20 uM incubated for 48 hrs by Western blot analysis; assay type: functional, cell-based
# DU-145 [26] = assay: Inhibition of epithelial mesenchymal transition in human DU-145 cells assessed as downregulation of ZEBI protein expression at 20 uM incubated for 48 hrs by Western blot analysis; assay type: functional, cell-based
# [27] = target: T1, Forkhead box protein C2 (Homo sapiens); assay: Induction of FOXC2 degradation in human PC-3 cells assessed as decrease in FOXC2 protein level at 20 uM incubated for 48 hrs by Western blot analysis; assay type: cell-based
# DU-145 [28] = assay: Inhibition of cancer stem cell activity in human DU-145 cells assessed as decrease in C-myc protein expression at 20 uM incubated for 48 hrs by Western blot analysis; assay type: functional, cell-based
# PC-3 [29] = assay: Inhibition of epithelial mesenchymal transition in human PC-3 cells assessed as downregulation of Vimentin protein expression at 20 uM incubated for 48 hrs by Western blot analysis; assay type: functional, cell-based
# DU-145 [30] = assay: Inhibition of cancer stem cell activity in human DU-145 cells assessed as decrease in KLF4 protein expression at 20 uM incubated for 48 hrs by Western blot analysis; assay type: functional, cell-based
# DU-145 [31] = assay: Antiproliferative activity against human DU-145 cells assessed as reduction in cell viability by MTT assay; assay type: functional, cell-based
# DU-145 [32] = assay: Inhibition of epithelial mesenchymal transition in human DU-145 cells assessed as downregulation of N-cadherin protein expression at 20 uM incubated for 48 hrs by Western blot analysis; assay type: functional, cell-based
smiles,measurement,setting,value
N=C(N)NCCCCNc1nc(Nc2ccc(Oc3ccccc3)cc2)nc(N2CCN(c3nc(N)nc(Nc4ccc(N5CCOCC5)cc4)n3)CC2)n1,inhibition,DU-145 [1],Active
same,Activity,LNCaP [2],inactive
same,inhibition,DU-145 [3],Active
same,CI,DU-145 [4],>1
same,Activity,DU-145 [5],Active
same,inhibition,PC-3 [6],Active
same,pEC50,PC-3 [7],4.27
same,Activity,LNCaP [8],inactive
same,Activity,PC-3 [9],Active
same,inhibition,PC-3 [10],Active
same,CI,PC-3 [11],>1
same,Activity,DU-145 [12],Active
same,Activity,PC-3 [13],Active
same,inhibition,DU-145 [14],Active
same,inhibition,PC-3 [15],Active
same,Activity,[16],Active
same,inhibition,PC-3 [17],Active
same,inhibition,PC-3 [18],Active
same,inhibition,PC-3 [19],Active
same,Activity,PC-3 [20],inactive
same,Activity,DU-145 [21],inactive
same,inhibition,PC-3 [22],Active
same,inhibition,DU-145 [23],Active
same,inhibition,PC-3 [24],Active
same,inhibition,DU-145 [25],Active
same,inhibition,DU-145 [26],Active
same,Activity,[27],Active
same,inhibition,DU-145 [28],Active
same,inhibition,PC-3 [29],Active
same,inhibition,DU-145 [30],Active
same,pEC50,DU-145 [31],4.32
same,inhibition,DU-145 [32],Active
CC(=O)O[C@@]12CO[C@@H]1C[C@H](O)[C@@]1(C)C(=O)[C@H](O)C3=C(C)[C@@H](OC(=O)[C@H](O)[C@@H](NC(=O)OC(C)(C)C)c4ccccc4)C[C@@](O)([C@@H](OC(=O)c4ccccc4)[C@H]21)C3(C)C [DOCETAXEL ANHYDROUS],pEC50,PC-3 [7],8.12
same,pEC50,DU-145 [31],8.22
CNC(=O)c1ccc(N2C(=S)N(c3ccc(C#N)c(C(F)(F)F)c3)C(=O)C2(C)C)cc1F,Activity,PC-3 [7],inactive
same,Activity,DU-145 [31],inactive
